Where a SMILES comes first, the peptide text is derived from it. Bridges are numbered along the chain shown (N, C = ends). [ ]: non-standard residue; d: D form. The star is where a group is joined. d(aIle) = CC[C@H](C)[C@@H](N)C(=O)O; d(aThr) = C[C@@H](O)[C@@H](N)C(=O)O; Hexanoyl(5-Me) = CC(C)CCCC(=O)*; Phg = N[C@H](C(=O)O)c1ccccc1; Orn = NCCC[C@H](N)C(=O)O; Dhb = C/C=C(\N)C(=O)O
Columns and labels:
Assay type in all cases: cell-based, human
SK-BR-3 = assay: SRB colorimetric assay of cell growth and viability, SK-BR-3; conditions: 48 hours exposure
Source text: The finality of this assay is to interrupt the growth of a “in vitro” tumor cell culture by means a continued exhibition of the cells to the sample to be testing.
This form of the assay employs 96 well cell culture microplates of 9 mm diameter (Faircloth, 1988; Mosmann, 1983). Most of the cell lines are obtained from American Type Culture Collection (ATCC) derived from different human cancer types.
Cells are maintained in RPMI 1640 10% FBS, supplemented with 0.1 g/l penicillin and 0.1 g/l streptomycin sulfate and then incubated at 37° C., 5% CO2 and 98% humidity. For the experiments, cells were harvested from subconfluent cultures using trypsin and resuspended in fresh medium before plating.
Cells are seeded in 96 well microtiter plates, at 5×10^3 cells per well in aliquots of 195 μL medium, and they are allowed to attach to the plate surface by growing in drug free medium for 18 hours. Afterward, samples are added in aliquots of 5 μL in a ranging from 10 to 10^−8 μg/mL, dissolved in DMSO:EtOH:PBS (0.5:0.5:99). After 48 hours exposure, the antitumor effect are measured by the SRB methodology: cells are fixed by adding 50 μL of cold 50% (wt/vol) trichloroacetic acid (TCA) and incubating for 60 minutes at 4° C. Plates are washed with deionized water and dried. One hundred μL of SRB solution (0.4% wt/vol in 1% acetic acid) is added to each microtiter well and incubated for 10 minutes at room temperature. Unbound SRB is removed by washing with 1% acetic acid. Plates are air dried and bound stain is solubilized with Tris buffer. Optical densities are read on a automated spectrophotometric plate reader at a single wavelength of 490 nm.
The values for mean+/− SD of data from triplicate wells are calculated. Some parameters for cellular responses can be calculated: GI=growth inhibition, TGI=total growth inhibition (cytostatic effect) and LC=cell killing (cytotoxic effect).

HeLa = assay: SRB colorimetric assay of cell growth and viability, HeLa; conditions: HELA, 48 hours exposure; for CC50: read-out: LC50 HELA
LoVo-Dox = assay: SRB colorimetric assay of cell growth and viability, LoVo-Dox; conditions: LOVO-DOX, 48 hours exposure; for CC50: read-out: LC50 LOVO-DOX
Method in brief: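 Tumor cells are continuously exposed to sample for 48 hours, with vehicle DMSO:EtOH:PBS (0.5:0.5:99), after an 18-hour drug-free attachment period. Bound SRB, measured at 490 nm, reflects cell mass; GI, TGI and LC are derived from triplicate means.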

DU-145 = assay: SRB colorimetric assay of cell growth and viability, DU-145; conditions: 48 hours exposure
A-549 = assay: SRB colorimetric assay of cell growth and viability, A-549; conditions: A-549, 48 hours exposure; for GI50: read-out: GI50 A-549; for CC50: read-out: LC50 A-549
SK-MEL-28 = assay: SRB colorimetric assay of cell growth and viability, SK-MEL-28; conditions: 48 hours exposure; for CC50: read-out: LC50 MEL-28
PANC-1 = assay: SRB colorimetric assay of cell growth and viability, PANC-1; conditions: PANC-1, 48 hours exposure; for CC50: read-out: LC50 PANC-1
IGROV-ET = assay: SRB colorimetric assay of cell growth and viability, IGROV-ET; conditions: 48 hours exposure; for CC50: read-out: LC50 IGROV-ET
LoVo = assay: SRB colorimetric assay of cell growth and viability, LoVo; conditions: LOVO, 48 hours exposure; for CC50: read-out: LC50 LOVO
K-562 = assay: SRB colorimetric assay of cell growth and viability, K-562; conditions: K-562, 48 hours exposure; for CC50: read-out: LC50 K-562
HT-29 = assay: SRB colorimetric assay of cell growth and viability, HT-29; conditions: HT-29, 48 hours exposure; for GI50: read-out: GI50 HT-29; for CC50: read-out: LC50 HT-29
IGROV-1 = assay: SRB colorimetric assay of cell growth and viability, IGROV-1; conditions: 48 hours exposure
HeLa-APL = assay: SRB colorimetric assay of cell growth and viability, HeLa-APL; conditions: HELA-APL, 48 hours exposure; for CC50: read-out: LC50 HELA-APL

Compound	LC50 (SK-BR-3; SK-BR-3) [µM]	GI50 (HeLa) [µM]	TGI HELA (HeLa) [Molar]	CC50 (HeLa) [µM]	GI50 (LoVo-Dox) [µM]	TGI LOVO-DOX (LoVo-Dox) [Molar]	CC50 (LoVo-Dox) [µM]	LC50 (concentration causing 50% net cell kill) (DU-145; DU-145) [µM]	TGI A-549 (A-549) [Molar]	GI50 (A-549) [µM]	CC50 (A-549) [µM]	CC50 (SK-MEL-28; MEL-28) [µM]	GI50 (PANC-1) [µM]	TGI PANC-1 (PANC-1) [Molar]	CC50 (PANC-1) [µM]	CC50 (IGROV-ET; IGROV-ET) [µM]	GI50 (K-562) [µM]	TGI K-562 (K-562) [Molar]	CC50 (K-562) [µM]	TGI HT-29 (HT-29) [Molar]	also measured
C/C=C1\NC(=O)[C@H](c2ccccc2)NC(=O)[C@@H](C(C)C)NC(=O)[C@@H]([C@@H](C)CC)NC(=O)[C@H](NC(=O)[C@H](NC(=O)[C@H](CCCN)NC(=O)[C@H]2CCCN2C(=O)[C@H](NC(=O)[C@@H](NC(=O)[C@@H](NC(=O)[C@H](NC(=O)CCCC(C)C)C(C)C)[C@@H](C)O)C(C)C)C(C)C)[C@@H](C)CC)[C@@H](C)OC(=O)[C@H](C(C)C)NC1=O [Compound 87, [Phg^3]-KF] ({Hexanoyl(5-Me)}-[dV]TV[dV][dP][Orn][d(aIle)][d(aThr)][d(aIle)][dV][Phg][Dhb]V; ester 8-C)	1.87	1.9	1.90E−06	1.9	0.513	1.32E−06	1.9	1.9	1.90E−06	1.9	1.9	1.9	1.9	1.90E−06	1.9	1.9	1.9	1.90E−06	1.9	1.90E−06	GI50 (SK-BR-3; SK-BR-3): 0.748 µM; TGI SK-BR-3 (SK-BR-3; SK-BR-3): 1.19E−06 Molar; GI50 (DU-145; DU-145): 1.9 µM; TGI DU-145 (DU-145; DU-145): 1.90E−06 Molar; GI50 (SK-MEL-28; MEL-28): 1.9 µM; TGI MEL-28 (SK-MEL-28; MEL-28): 1.90E−06 Molar; GI50 (IGROV-ET; IGROV-ET): 1.29 µM; TGI IGROV-ET (IGROV-ET; IGROV-ET): 1.90E−06 Molar; GI50 (LoVo): 0.957 µM; TGI LOVO (LoVo): 1.90E−06 Molar; CC50 (LoVo): 1.9 µM; GI50 (HT-29): 1.58 µM; CC50 (HT-29): 1.9 µM; GI50 (IGROV-1; IGROV): 0.919 µM; LC50 (concentration causing 50% net cell killing) (IGROV-1; IGROV): 1.9 µM; TGI IGROV (IGROV-1; IGROV): 1.90E−06 Molar; GI50 (HeLa-APL): 1.9 µM; TGI HELA-APL (HeLa-APL): 1.90E−06 Molar; CC50 (HeLa-APL): 1.9 µM
C/C=C1\NC(=O)[C@H](Cc2ccccc2)NC(=O)[C@@H](C(C)C)NC(=O)[C@@H]([C@@H](C)CC)NC(=O)[C@H](NC(=O)[C@H](NC(=O)[C@H](CCCN)NC(=O)[C@H]2CCCN2C(=O)[C@H](NC(=O)[C@@H](NC(=O)[C@H](CCC(N)=O)NC(=O)[C@H](NC(=O)CCCC(C)C)C(C)C)C(C)C)C(C)C)[C@@H](C)CC)[C@@H](C)OC(=O)[C@H](C(C)C)NC1=O [Compound 119, [Gln^12]-KF] ({Hexanoyl(5-Me)}-[dV]QV[dV][dP][Orn][d(aIle)][d(aThr)][d(aIle)][dV]F[Dhb]V; ester 8-C)	1.56	0.379	6.64E−07	1.99	0.591	1.16E−06	1.99	1.99	1.99E−06	1.99	1.99	1.99	1.99	1.99E−06	1.99	1.99	1.99	1.99E−06	1.99	1.35E−06	GI50 (SK-BR-3; SK-BR-3): 0.258 µM; TGI SK-BR-3 (SK-BR-3; SK-BR-3): 5.34E−07 Molar; GI50 (DU-145; DU-145): 1.99 µM; TGI DU-145 (DU-145; DU-145): 1.99E−06 Molar; GI50 (SK-MEL-28; MEL-28): 1.99 µM; TGI MEL-28 (SK-MEL-28; MEL-28): 1.99E−06 Molar; GI50 (IGROV-ET; IGROV-ET): 0.764 µM; TGI IGROV-ET (IGROV-ET; IGROV-ET): 1.37E−06 Molar; GI50 (HT-29): 0.864 µM; CC50 (HT-29): 1.99 µM; GI50 (IGROV-1; IGROV): 0.651 µM; LC50 (concentration causing 50% net cell killing) (IGROV-1; IGROV): 1.74 µM; TGI IGROV (IGROV-1; IGROV): 1.07E−06 Molar; GI50 (HeLa-APL): 1.99 µM; TGI HELA-APL (HeLa-APL): 1.99E−06 Molar; CC50 (HeLa-APL): 1.99 µM
[2H]C([2H])([2H])C([2H])(C([2H])([2H])[2H])[C@]([2H])(NC(=O)[C@@H](NC(=O)[C@H](NC(=O)CCCC(C)C)C(C)C)[C@@H](C)O)C(=O)N[C@@H](C(=O)N1CCC[C@@H]1C(=O)N[C@@H](CCCN)C(=O)N[C@@H](C(=O)N[C@H]1C(=O)N[C@H]([C@@H](C)CC)C(=O)N[C@H](C(C)C)C(=O)N[C@@H](Cc2ccccc2)C(=O)N/C(=C\C)C(=O)N[C@@H](C(C)C)C(=O)O[C@@H]1C)[C@@H](C)CC)C(C)C [Compound 100, [L-Val-d8^11]-KF]	1.45	0.681	1.15E−06	1.88	0.123	6.88E−07	1.38	1.59	1.88E−06	1.88	1.88	1.88	1.88	1.88E−06	1.88	1.75	1.88	1.88E−06	1.88	6.50E−07	GI50 (SK-BR-3; SRB): 0.348 µM; TGI SK-BR-3 (SK-BR-3; SRB): 8.19E−07 Molar; GI50 (DU-145; SRB): 0.544 µM; TGI DU-145 (DU-145; SRB): 9.69E−07 Molar; GI50 (SK-MEL-28; SRB): 0.963 µM; TGI MEL-28 (SK-MEL-28; SRB): 1.46E−06 Molar; GI50 (IGROV-ET; SRB): 0.399 µM; TGI IGROV-ET (IGROV-ET; SRB): 7.63E−07 Molar; GI50 (LoVo): 0.181 µM; TGI LOVO (LoVo): 6.38E−07 Molar; CC50 (LoVo): 1.26 µM; GI50 (HT-29): 0.318 µM; CC50 (HT-29): 1.18 µM; GI50 (IGROV-1; SRB): 0.781 µM; TGI IGROV (IGROV-1; SRB): 1.16E−06 Molar; LC50 (concentration causing 50% net cell killing) (IGROV-1; IGROV): 1.73 µM

— patent publication US20070117743A1, “New antitumoral compounds” (priority 2003, published 2007)
